# Source: patent publication US6531466B2, “Tricyclic carbapenem compounds” (GlaxoSmithKline SpA, priority 1996, dated 2003)
# Experiments:
# [1] = tested on: methicillin resistant Staphylococcus epidermidis (MRSE); test: standard microtiter broth serial dilution test, MRSE strains; type: cell-based; settings: 10 strains of MRSE; approximately 10^5 colony forming units, 35° for 18 hours
# Experimental: (§1) The antibacterial activity of the compounds of the invention may be readily determined using conventional test procedures. For example the antibacterial activity of the compounds of the invention was determined using a standard mictoriter broth serial dilution test. In this test the broth was incubated with approximately 10^5 colony forming units of the test organism and incubated at 35° for 18 hours in the presence of test compound.
# (§2) In this list the compounds of the invention were tested using this procedure against 23 strains of MRSA and 10 strains of MRSE and the resultant minimum inhibitory concentrations (MIC90) in mg/litre determined.
# [2] = tested on: methicillin resistant Staphylococcus aureus (MRSA); test: standard microtiter broth serial dilution test, MRSA strains; type: cell-based; settings: 23 strains of MRSA; approximately 10^5 colony forming units, 35° for 18 hours
# Experimental: as §1, §2
# [3] = toxicity on administration to rats; type: in vivo; settings: doses up to 1000 mg/kg
# Source text: Compounds of the invention are in general non-toxic and therapeutically effective doses.
MRSE MIC90 [1] [µg/mL],MRSA MIC90 [2] [µg/mL],SMILES,untoward effects [3]
2,4,"C[C@@H](O)[C@H]1C(=O)N2C(C(=O)[O-])=C3/C(=C/c4nc(-c5ccncc5)cs4)CCC[C@@H]3[C@H]12.[Na+] [Example 3, Sodium (8S,9R,10S,12R)-1-aza-10-(1-Hydroxyethyl)-11-oxo-4-[(E)-(4-(4′-pyridyl)thiazol-2-yl)methylene]-tricyclo-[7,2,0,0^3.8]-undec-2-ene-2-carboxylate]",
2,4,"C[C@@H](O)[C@H]1C(=O)N2C(C(=O)[O-])=C3/C(=C/c4cc(-c5cc[n+](CC(N)=O)cc5)cs4)CCC[C@@H]3[C@H]12 [Example 18, (8S,9R,10S,12R)-1-aza-10-(1-Hydroxyethyl)-11-oxo-4-[(E)-(4-(1′-(carbamoylmethyl)pyridinium-4-′-yl)thiophen-2-yl)methylene]-tricyclo-[7,2,0,0^3.8]-undec-2-ene-2-carboxylate]",
2,4,"C[C@@H](O)[C@H]1C(=O)N2C(C(=O)[O-])=C3/C(=C/c4ccncc4)CCC[C@@H]3[C@H]12.[Na+] [Example 5, Sodium (8S,9R,10S,12R)-1-aza-10-(1-Hydroxyethyl)-11-oxo-4-[(E)-(pyrid-4-yl)methylene]-tricyclo-[7,2,0,0^3.8]-undec-2-ene-2-carboxylate]",no untoward effects
4,8,"Cc1cc(/C=C2\CCC[C@H]3C2=C(C(=O)[O-])N2C(=O)[C@H]([C@@H](C)O)[C@@H]32)cc(C)n1.[Na+] [Example 9, Sodium (8S,9R,10S,12R)-1-aza-10-(1-Hydroxyethyl)-11-oxo-4-[(E)-(2,6-dimethylpyridin-4-yl)methylene]-tricyclo-[7,2,0,0^3.8]-undec-2-ene-2-carboxylate]",
1,2,"C[C@@H](O)[C@H]1C(=O)N2C(C(=O)[O-])=C3/C(=C/c4cc5ccccc5s4)CCC[C@@H]3[C@H]12.[Na+] [Example 16, Sodium (8S,9R,10S,12R)-1-aza-10-(1-Hydroxyethyl)-11-oxo-4-[(E)-(benzothiophen-2-yl)methylene]-tricyclo-[7,2,0,0^3.8]-undec-2-ene-2-carboxylate]",
2,4,C[C@@H](O)[C@H]1C(=O)N2C(C(=O)[O-])=C3/C(=C/c4ccnc(Cl)c4)CCC[C@@H]3[C@H]12.[Na+] [Example 12],
4,4,C[C@@H](O)[C@H]1C(=O)N2C(C(=O)[O-])=C3/C(=C/c4cc5cnccc5o4)CCC[C@@H]3[C@H]12.[Na+] [Example 13],
2,2,"C[C@@H](O)[C@H]1C(=O)N2C(C(=O)[O-])=C3/C(=C/c4ccc([N+](=O)[O-])cc4)CCC[C@@H]3[C@H]12.[Na+] [Example 6, Sodium (8S,9R,10S,12R)-1-aza-10-(1-Hydroxyethyl)-11-oxo-4-[(E)-(4-nitrophenyl)methylene]-tricyclo-[7,2,0,0^3.8]-undec-2-ene-2-carboxylate]",
2,4,"C[C@@H](O)[C@H]1C(=O)N2C(C(=O)[O-])=C3/C(=C/c4nc(-c5ccccc5)cs4)CCC[C@@H]3[C@H]12.[Na+] [Example 7, Sodium (8S,9R,10S,12R)-1-aza-10-(1-Hydroxyethyl)-11-oxo-4-[(E)-(4-phenylthiazol-2-yl)methylene]-tricyclo-[7,2,0,0^3.8]-undec-2-ene-2-carboxylate]",
2,4,"C[C@@H](O)[C@H]1C(=O)N2C(C(=O)[O-])=C3/C(=C/c4ccc(Cl)c([N+](=O)[O-])c4)CCC[C@@H]3[C@H]12.[Na+] [Example 15, Sodium (8S,9R,10S,12R)-1-aza-10-(1-Hydroxyethyl)-11-oxo-4-[(E)-(4-chloro-3-nitro-phenyl)methylene]-tricyclo-[7,2,0,0^3.8]-undec-2-ene-2-carboxylate]",
4,8,"C[C@@H](O)[C@H]1C(=O)N2C(C(=O)[O-])=C3/C(=C/c4ccccc4)CCC[C@@H]3[C@H]12.[Na+] [Example 1, Sodium (8S,9R,10S,12R)-1-aza-10-(1-Hydroxyethyl)-11-oxo-4-[(E)-phenylmethylene]-tricyclo-[7,2,0,0^3.8]-undec-2-ene-2-carboxylate]",
2,2,"C[C@@H](O)[C@H]1C(=O)N2C(C(=O)[O-])=C3/C(=C/c4cccc(-c5ccncc5)c4)CCC[C@@H]3[C@H]12.[Na+] [Example 8, Sodium (8S,9R,10S,12R)-1-aza-10-(1-Hydroxyethyl)-11-oxo-4-[(E)-(3-(4′-pyridyl)phenyl)methylene]-tricyclo-[7,2,0,0^3.8]-undec-2-ene-2-carboxylate]",
4,8,"Cc1cc(/C=C2\CCC[C@H]3C2=C(C(=O)[O-])N2C(=O)[C@H]([C@@H](C)O)[C@@H]32)ccn1.[Na+] [Example 10, Sodium (8S,9R,10S,12R)-1-aza-10-(1-Hydroxyethyl)-11-oxo-4-[(E)-(2-methylpyridin-4-yl)methylene]-tricyclo-[7,2,0,0^3.8]-undec-2-ene-2-carboxylate]",
2,4,"C[C@@H](O)[C@H]1C(=O)N2C(C(=O)[O-])=C3/C(=C/c4csc5ccccc45)CCC[C@@H]3[C@H]12.[Na+] [Example 17, Sodium (8S,9R,10S,12R)-1-aza-10-(1-Hydroxyethyl)-11-oxo-4-[(E-)(benzothiophen-3-yl)methylene]-tricyclo-[7,2,0,0^3.8]-undec-2-ene-2-carboxylate]",
4,8,"C[C@@H](O)[C@H]1C(=O)N2C(C(=O)[O-])=C3/C(=C/c4ccnc(N)c4)CCC[C@@H]3[C@H]12.[Na+] [Example 14, Sodium (8S,9R,10S,12R)-1-aza-10-(1-Hydroxyethyl)-11-oxo-4-[(E)-(2-aminopyrid-4-yl)methylene]-tricyclo-[7,2,0,0^3.8]-undec-2-ene-2-carboxylate]",
2,4,C[C@@H](O)[C@H]1C(=O)N2C(C(=O)[O-])=C3/C(=C/c4cc5ccccc5o4)CCC[C@@H]3[C@H]12.[Na+] [Example 11],
